Legend:
[1] = target: IKZF2 (Homo sapiens (Human), UniProt Q96SW2+Q9UKS7); assay: In vitro IKZF2 HiBit Assay (HEK293T Flp-in-HiBiT cells); format: cell-based; details: HEK293T Flp-in-HiBiT cells, 6 hrs incubation; for DC50: read-out: IKZF2 HiBit DC50; for Dmax: HEK-293T, read-out: IKZF2 HiBit Dmax (%)
Experimental: In Vitro IKZF2 HiBit Assay
The HiBiT protein tagging system was applied to modified HEK293T Flp-in-HiBiT cells (polyclone) via a CRISPR/Cas9-mediated insertion of the HiBiT peptide tag (Promega™) to the N-terminus of the IKZF2 gene locus (Neon™ transfection system). Test and reference compounds are diluted from 1 mM at 3 folds for 11 doses. 25 nL of diluted compound is transfered to assay plates (Corning3570) using ECHO550, the final DMSO concentration @ 0.1%. The cells are seeded in 3000/25 μL/well to compound plates. It is then incubated for 6 hrs in TC incubator. The amount of Nano-Glo® HiBiT lytic reagent needed to perform the desired experiments is calculated. The Nano-Glo® HiBiT lytic reagent is brought to room temperature. The LgBiT protein is diluted to 1:100 and the Nano-Glo® HiBiT lytic substrate is diluted to 1:50 into an appropriate volume of room temperature Nano-Glo® HiBiT lytic buffer. 15 μL of the detection reagent (or without LgBiT) is dispensed to corresponding well according to the layout. The plate is then shaked for 10 mins at room temperature. After briefly centrifuge, the plate is read on Envision. At the indicated timepoints, the Nano-Glo® HiBiT lytic detection system (Promega™) was utilized for detecting bioluminescence of the HiBiT tag in treated cells: abundance of the tag is proportionate to the level of luminescence. Following normalization to DMSO, dose-response curves were plotted (GraphPad Prism) to determine the concentration points at which 50% of HiBiT-Helios degradation was achieved by each compound. The extent of degradation (range of luminescence) from the highest to lowest concentration points was calculated to determine the Dmax.
(§1) DC50, A: <1 nM; B: 1-10 nM; C: 10-100 nM; D: 100-1000 nM; E: 1000-10000 nM; F: >10,000 nM. Dmax, A: >80%; B: 60-80%; C: 40-60%; D: 20-40%; E: <20%.

[2] = target: IKZF1 (Homo sapiens (Human), UniProt Q13422+Q96SW2); assay: In vitro IKZF1 HiBit Assay (HEK293T Flp-in-HiBiT-IKZF1 stable cell line); format: cell-based; details: HEK293T Flp-in-HiBiT-IKZF1 stable cell line, 6 hrs incubation; for DC50: read-out: IKZF1 HiBit DC50; for Dmax: HEK-293T, read-out: IKZF1 HiBit Dmax (%)
Experimental: In Vitro IKZF1 HiBit Assay
The HiBiT protein tagging system was applied to modified Cells: modified HEK293T Flp-in-HiBiT-IKZF1 stable cell line (polyclone) via a CRISPR/Cas9-mediated insertion of the HiBiT peptide tag (Promega™) to the N-terminus of the […] gene locus (Neon™ transfection system).
25 nL of diluted compound is transferred to assay plates (Corning3571) using ECHO550, the final DMSO concentration @ 0.1%. The cells are seeded in 3000/25 μL/well to compound plates. The plates are incubated for 6 hrs in TC incubator. The amount of Nano-Glo® HiBiT lytic reagent needed to perform the desired experiments is calculated. The Nano-Glo® HiBiT lytic reagent is brought to room temperature. The LgBiT protein is diluted to 1:100 and the Nano-Glo® HiBiT lytic substrate is brought to 1:50 into an appropriate volume of room temperature Nano-Glo® HiBiT lytic buffer. 15 μL of the detection reagent (or without LgBiT) is dispensed to corresponding well according to the layout. The plate is shaked for 10 mins at room temperature. After briefly centrifuge, the plateis read on Envision. At the indicated timepoints, the Nano-Glo® HiBiT lytic detection system (Promega™) was utilized for detecting bioluminescence of the HiBiT tag in treated cells: abundance of the tag is proportionate to the level of luminescence. Following normalization to DMSO, dose-response curves were plotted (GraphPad Prism) to determine the concentration points at which 50% of HiBiT-Ikaros degradation was achieved by each compound. The extent of degradation (range of luminescence) from the highest to lowest concentration points was calculated to determine the Dmax.
as §1

Sequence of IKZF2 (Q9UKS7 whole entry): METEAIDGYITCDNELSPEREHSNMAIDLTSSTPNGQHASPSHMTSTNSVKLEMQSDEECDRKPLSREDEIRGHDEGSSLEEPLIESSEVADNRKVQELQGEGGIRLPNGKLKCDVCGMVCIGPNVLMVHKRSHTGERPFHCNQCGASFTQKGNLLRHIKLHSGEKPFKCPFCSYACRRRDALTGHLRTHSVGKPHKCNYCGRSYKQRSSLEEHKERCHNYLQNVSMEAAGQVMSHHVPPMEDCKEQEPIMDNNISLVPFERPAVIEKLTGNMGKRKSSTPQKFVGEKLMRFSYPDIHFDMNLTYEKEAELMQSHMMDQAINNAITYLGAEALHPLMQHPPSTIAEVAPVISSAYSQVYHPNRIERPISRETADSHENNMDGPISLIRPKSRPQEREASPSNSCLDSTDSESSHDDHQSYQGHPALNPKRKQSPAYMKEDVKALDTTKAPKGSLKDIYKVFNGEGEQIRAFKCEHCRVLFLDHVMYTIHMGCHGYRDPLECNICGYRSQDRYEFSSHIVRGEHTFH
Sequence of IKZF2 (Q96SW2 whole entry): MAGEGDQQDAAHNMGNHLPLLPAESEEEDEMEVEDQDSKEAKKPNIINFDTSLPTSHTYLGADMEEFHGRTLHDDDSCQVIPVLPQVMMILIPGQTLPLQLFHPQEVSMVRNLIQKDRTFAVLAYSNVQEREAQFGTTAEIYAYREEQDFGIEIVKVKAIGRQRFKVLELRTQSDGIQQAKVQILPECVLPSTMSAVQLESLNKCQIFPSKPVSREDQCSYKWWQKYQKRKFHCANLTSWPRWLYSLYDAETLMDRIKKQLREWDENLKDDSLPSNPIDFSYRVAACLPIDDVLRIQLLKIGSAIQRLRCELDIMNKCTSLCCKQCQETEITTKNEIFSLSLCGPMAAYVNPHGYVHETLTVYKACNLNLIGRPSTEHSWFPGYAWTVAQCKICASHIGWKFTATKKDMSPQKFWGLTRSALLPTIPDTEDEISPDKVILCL
Sequence of IKZF2 (Q16531 2-1140 partner): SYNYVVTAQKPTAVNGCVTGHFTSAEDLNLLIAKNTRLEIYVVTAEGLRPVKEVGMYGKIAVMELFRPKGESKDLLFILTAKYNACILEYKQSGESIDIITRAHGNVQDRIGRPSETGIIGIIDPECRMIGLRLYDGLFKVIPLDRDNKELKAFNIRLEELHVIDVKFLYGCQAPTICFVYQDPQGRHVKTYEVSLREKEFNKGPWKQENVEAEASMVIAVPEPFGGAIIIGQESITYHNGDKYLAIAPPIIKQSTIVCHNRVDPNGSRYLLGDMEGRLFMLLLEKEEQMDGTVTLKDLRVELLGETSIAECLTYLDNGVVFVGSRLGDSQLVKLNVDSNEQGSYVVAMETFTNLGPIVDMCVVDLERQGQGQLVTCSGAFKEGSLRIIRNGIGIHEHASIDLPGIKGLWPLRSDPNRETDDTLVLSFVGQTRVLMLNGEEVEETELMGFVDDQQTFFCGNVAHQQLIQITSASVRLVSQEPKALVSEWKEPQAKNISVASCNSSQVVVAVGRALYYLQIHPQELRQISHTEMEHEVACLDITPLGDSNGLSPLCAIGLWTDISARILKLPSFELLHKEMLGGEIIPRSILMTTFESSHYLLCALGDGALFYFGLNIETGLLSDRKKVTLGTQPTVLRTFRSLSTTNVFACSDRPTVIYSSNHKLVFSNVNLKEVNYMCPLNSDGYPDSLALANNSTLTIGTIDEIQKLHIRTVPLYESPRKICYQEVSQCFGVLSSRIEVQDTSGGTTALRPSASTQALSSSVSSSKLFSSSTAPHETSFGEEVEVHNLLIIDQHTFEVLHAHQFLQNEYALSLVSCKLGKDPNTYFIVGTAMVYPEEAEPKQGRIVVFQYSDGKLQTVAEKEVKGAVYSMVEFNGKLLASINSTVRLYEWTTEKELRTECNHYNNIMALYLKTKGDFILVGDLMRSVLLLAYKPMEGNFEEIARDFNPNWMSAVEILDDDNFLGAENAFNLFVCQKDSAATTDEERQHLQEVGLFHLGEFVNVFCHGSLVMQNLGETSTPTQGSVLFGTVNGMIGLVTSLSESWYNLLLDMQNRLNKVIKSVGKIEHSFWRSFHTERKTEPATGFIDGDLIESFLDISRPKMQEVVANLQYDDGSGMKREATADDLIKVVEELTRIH
Sequence of IKZF1 (Q13422 whole entry): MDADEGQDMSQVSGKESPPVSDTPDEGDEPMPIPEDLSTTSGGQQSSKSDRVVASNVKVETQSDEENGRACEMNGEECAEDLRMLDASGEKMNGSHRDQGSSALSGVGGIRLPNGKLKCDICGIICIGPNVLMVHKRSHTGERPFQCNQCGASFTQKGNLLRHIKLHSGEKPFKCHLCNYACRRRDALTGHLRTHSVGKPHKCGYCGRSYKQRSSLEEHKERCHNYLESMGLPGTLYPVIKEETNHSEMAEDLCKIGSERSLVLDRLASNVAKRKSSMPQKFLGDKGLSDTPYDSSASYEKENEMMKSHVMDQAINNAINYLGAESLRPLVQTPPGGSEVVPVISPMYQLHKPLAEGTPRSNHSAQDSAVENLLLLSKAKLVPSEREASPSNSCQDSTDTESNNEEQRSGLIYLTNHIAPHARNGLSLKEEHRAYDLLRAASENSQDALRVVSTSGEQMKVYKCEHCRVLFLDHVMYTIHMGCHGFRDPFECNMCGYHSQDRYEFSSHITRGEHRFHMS
Sequence of IKZF1 (Q96SW2 whole entry): as the sequence (Q96SW2 whole entry) above
Sequence of IKZF1 (Q16531 2-1140 partner): as the sequence (Q16531 2-1140 partner) above

DC50 [1]	Dmax [1]	DC50 [2]	Dmax [2]	Compound
> 10000 nM	< 20%	> 10000 nM	< 20%	O=C1CCC(N2Cc3cc(-c4cc(CN5CCCC5)c5ccn(C6COC6)c5n4)c(Cl)cc3C2=O)C(=O)N1 (stereo not shown) [Example 273, 3-(6-chloro-5-(1-(oxetan-3-yl)-4-(pyrrolidin-1-ylmethyl)-1H-pyrrolo[2,3-b]pyridin-6-yl)-1-oxoisoindolin-2-yl) piperidine-2,6-dione]
> 10000 nM	< 20%	> 10000 nM	< 20%	COCCOc1ccnc2c(CN3CCCC3)cc(-c3ccc4c(c3)CN(C3CCC(=O)NC3=O)C4=O)nc12 (stereo not shown) [Example 278, 3-(5-(8-(2-methoxyethoxy)-4-(pyrrolidin-1-ylmethyl)-1,5-naphthyridin-2-yl)-1-oxoisoindolin-2-yl) piperidine-2,6-dione]
1 to 10 nM	60 to 80%	> 10000 nM	< 20%	CC(Oc1ccnc2c(CN3CCCC3)cc(-c3ccc4c(c3)CN(C3CCC(=O)NC3=O)C4=O)nc12)C(F)(F)F (stereo not shown) [Example 279, 3-(1-oxo-5-(4-(pyrrolidin-1-ylmethyl)-8-((1,1,1-trifluoropropan-2-yl)oxy)-1,5-naphthyridin-2-yl)isoindolin-2-yl) piperidine-2,6-dione]
1 to 10 nM	20 to 40%	> 10000 nM	< 20%	O=C1CCC(N2Cc3cc(-c4cc(CN5CCCC5)c5nccc(OCCO)c5n4)ccc3C2=O)C(=O)N1 (stereo not shown) [Example 285, 3-(5-(8-(2-hydroxyethoxy)-4-(pyrrolidin-1-ylmethyl)-1,5-naphthyridin-2-yl)-1-oxoisoindolin-2-yl) piperidine-2,6-dione]
1 to 10 nM	60 to 80%	> 10000 nM	< 20%	CC(C)Nc1n[nH]c2c(CN3CCC(F)C3)cc(-c3ccc4c(c3F)CN(C3CCC(=O)NC3=O)C4=O)nc12 (stereo not shown) [Example 286]
10 to 100 nM	60 to 80%	100 to 1000 nM	20 to 40%	CC(C)Nc1n[nH]c2c(CN3CC4(COC4)C3)cc(-c3ccc4c(c3F)CN(C3CCC(=O)NC3=O)C4=O)nc12 (stereo not shown) [Example 287, 3-(5-(7-((2-oxa-6-azaspiro[3.3]heptan-6-yl)methyl)-3-(isopropylamino)-1H-pyrazolo[4,3-b]pyridin-5-yl)-4-fluoro-1-oxoisoindolin-2-yl) piperidine-2,6-dione]
1000 to 10000 nM	20 to 40%	> 10000 nM	< 20%	CC(C)Nc1n[nH]c2c(CN3CCCC3)cc(-c3ccc4c(c3)CN(C3(C)CCC(=O)NC3=O)C4=O)nc12 (stereo not shown) [Example 294, 3-(5-(3-(isopropylamino)-7-(pyrrolidin-1-ylmethyl)-1H-pyrazolo[4,3-b]pyridin-5-yl)-1-oxoisoindolin-2-yl)-3-methylpiperidine-2,6-dione]
< 1 nM	> 80%	1 to 10 nM	60 to 80%	CNc1[nH]nc2c(CN3CCCC3)cc(-c3ccc4c(c3F)CN(C3CCC(=O)NC3=O)C4=O)nc12 (stereo not shown) [Example 296, 3-(4-fluoro-5-(3-(methylamino)-7-(pyrrolidin-1-ylmethyl)-1H-pyrazolo[4,3-b]pyridin-5-yl)-1-oxoisoindolin-2-yl) piperidine-2,6-dione]
> 10000 nM	< 20%	> 10000 nM	< 20%	CS(=O)(=O)Nc1n[nH]c2c(CN3CCCC3)cc(-c3ccc4c(c3F)CN(C3CCC(=O)NC3=O)C4=O)nc12 (stereo not shown) [Example 297, N-(5-(2-(2,6-dioxopiperidin-3-yl)-4-fluoro-1-oxoisoindolin-5-yl)-7-(pyrrolidin-1-ylmethyl)-1H-pyrazolo[4,3-b]pyridin-3-yl) methanesulfonamide]

Compound	DC50 [1]	Dmax [1]	DC50 [2]	Dmax [2]
CO[C@H]1C[C@@H](Oc2ccnc3c(CN4CCCC4)cc(-c4ccc5c(c4)CN(C4CCC(=O)NC4=O)C5=O)nc23)C1 (stereo partly shown) [Example 281, 3-(5-(8-((1s,3s)-3-methoxycyclobutoxy)-4-(pyrrolidin-1-ylmethyl)-1,5-naphthyridin-2-yl)-1-oxoisoindolin-2-yl) piperidine-2,6-dione]	10 to 100 nM	60 to 80%	> 10000 nM	< 20%

— patent US20250214991A1 (Oncopia Therapeutics, Inc. d/b/a/ SK Life Science Labs, priority 2022, published 2025)
